# Species on record: Rattus norvegicus
# Test: Open TG-GATES - Regimen: Single
# Format: toxicity, organism-based, Sprague-Dawley
# Parameters: regimen Single, gender Male, age 6 weeks
# Conditions: in vivo, po, route gavage; for APTT / Bas / Eos / Fbg / Hb / Ht / Lym / MCH / MCHC / MCV / Mono / Neu / Plat / RBC / Ret / WBC: tissue Blood; for KIDNEY_L / KIDNEY_R / KIDNEY_TOTAL: tissue Kidney; for LIVER: tissue Liver; for ALP / ALT / AST / CRE / DBIL / GLC / IP / K / LDH / Na / PL / RALB / TBIL / TC / TG / TP / gamma-GTP: tissue Plasma
# [1] = 0 mg/kg, 3 h, dose level Control
# [2] = 0 mg/kg, 6 h, dose level Control
# [3] = 0 mg/kg, 9 h, dose level Control
# [4] = 0 mg/kg, 24 h, dose level Control
smiles,measurement,setting,value
CN(C)CCC=C1c2ccccc2COc2ccccc21 [DOXEPIN],TERMINAL_BW,[1],197.6 g
same,APTT,[1],20.9 s
same,Bas,[1],0%
same,Eos,[1],0.8%
same,Fbg,[1],250.4 mg/dL
same,Hb,[1],13.6 g/dL
same,Ht,[1],41.4%
same,Lym,[1],77.4%
same,MCH,[1],21.2 pg
same,MCHC,[1],32.9%
same,MCV,[1],64.4 fL
same,Mono,[1],3.6%
same,Neu,[1],17.4%
same,Plat,[1],123.1 x10_4/uL
same,RBC,[1],644 x10_4/ul
same,Ret,[1],8.4%
same,WBC,[1],93.1 x10_2/uL
same,KIDNEY_L,[1],0.9 g
same,KIDNEY_R,[1],0.9 g
same,KIDNEY_TOTAL,[1],1.8 g
same,LIVER,[1],8.7 g
same,ALP,[1],1553 IU/L
same,ALT,[1],44 IU/L
same,AST,[1],77.8 IU/L
same,CRE,[1],0.2 mg/dL
same,DBIL,[1],0.006 mg/dL
same,GLC,[1],169.4 mg/dL
same,IP,[1],8.4 mg/dL
same,K,[1],4.2 meq/L
same,LDH,[1],84.6 IU/L
same,Na,[1],142.4 meq/L
same,PL,[1],140.8 mg/dL
same,RALB,[1],2.5 g/dL
same,TBIL,[1],0.056 mg/dL
same,TC,[1],74.8 mg/dL
same,TG,[1],58.2 mg/dL
same,TP,[1],5.3 g/dL
same,gamma-GTP,[1],1.2 IU/L
same,TERMINAL_BW,[2],196 g
same,APTT,[2],17.7 s
same,Bas,[2],0.2%
same,Eos,[2],0.8%
same,Fbg,[2],265.6 mg/dL
same,Hb,[2],13.6 g/dL
same,Ht,[2],41.4%
same,Lym,[2],79.2%
same,MCH,[2],21.8 pg
same,MCHC,[2],32.8%
same,MCV,[2],66.3 fL
same,Mono,[2],3%
same,Neu,[2],16.2%
same,Plat,[2],112.3 x10_4/uL
same,RBC,[2],624.8 x10_4/ul
same,Ret,[2],9.3%
same,WBC,[2],110.1 x10_2/uL
same,KIDNEY_L,[2],0.9 g
same,KIDNEY_R,[2],0.9 g
same,KIDNEY_TOTAL,[2],1.8 g
same,LIVER,[2],8.1 g
same,ALP,[2],1565.4 IU/L
same,ALT,[2],37.4 IU/L
same,AST,[2],77.2 IU/L
same,CRE,[2],0.2 mg/dL
same,DBIL,[2],0.004 mg/dL
same,GLC,[2],158.4 mg/dL
same,IP,[2],8.9 mg/dL
same,K,[2],4.1 meq/L
same,LDH,[2],80.2 IU/L
same,Na,[2],142.6 meq/L
same,PL,[2],143.6 mg/dL
same,RALB,[2],2.4 g/dL
same,TBIL,[2],0.06 mg/dL
same,TC,[2],76.4 mg/dL
same,TG,[2],49.2 mg/dL
same,TP,[2],5.3 g/dL
same,gamma-GTP,[2],1.2 IU/L
same,TERMINAL_BW,[3],195.7 g
same,APTT,[3],17.2 s
same,Bas,[3],0%
same,Eos,[3],1%
same,Fbg,[3],271.8 mg/dL
same,Hb,[3],13.2 g/dL
same,Ht,[3],39.9%
same,Lym,[3],77.8%
same,MCH,[3],21.5 pg
same,MCHC,[3],32.9%
same,MCV,[3],65.3 fL
same,Mono,[3],2.2%
same,Neu,[3],18.6%
same,Plat,[3],119.3 x10_4/uL
same,RBC,[3],612.4 x10_4/ul
same,Ret,[3],8.9%
same,WBC,[3],87 x10_2/uL
same,KIDNEY_L,[3],0.9 g
same,KIDNEY_R,[3],0.9 g
same,KIDNEY_TOTAL,[3],1.8 g
same,LIVER,[3],7.5 g
same,ALP,[3],1472.4 IU/L
same,ALT,[3],36.6 IU/L
same,AST,[3],71.2 IU/L
same,CRE,[3],0.2 mg/dL
same,DBIL,[3],0 mg/dL
same,GLC,[3],159.2 mg/dL
same,IP,[3],9.7 mg/dL
same,K,[3],3.9 meq/L
same,LDH,[3],95 IU/L
same,Na,[3],143 meq/L
same,PL,[3],125.8 mg/dL
same,RALB,[3],2.4 g/dL
same,TBIL,[3],0.058 mg/dL
same,TC,[3],70.6 mg/dL
same,TG,[3],33.6 mg/dL
same,TP,[3],5.3 g/dL
same,gamma-GTP,[3],1.2 IU/L
same,TERMINAL_BW,[4],214.2 g
same,APTT,[4],18.6 s
same,Bas,[4],0%
same,Eos,[4],1.2%
same,Fbg,[4],269 mg/dL
same,Hb,[4],13 g/dL
same,Ht,[4],38.8%
same,Lym,[4],76.4%
same,MCH,[4],21.7 pg
same,MCHC,[4],33.5%
same,MCV,[4],64.8 fL
same,Mono,[4],3%
same,Neu,[4],19%
same,Plat,[4],116.4 x10_4/uL
same,RBC,[4],600.2 x10_4/ul
same,Ret,[4],8.1%
same,WBC,[4],94.8 x10_2/uL
same,KIDNEY_L,[4],1 g
same,KIDNEY_R,[4],0.9 g
same,KIDNEY_TOTAL,[4],1.9 g
same,ALP,[4],2073 IU/L
same,ALT,[4],37.8 IU/L
same,AST,[4],75.6 IU/L
same,CRE,[4],0.2 mg/dL
same,DBIL,[4],0.004 mg/dL
same,GLC,[4],173.2 mg/dL
same,IP,[4],7.2 mg/dL
same,K,[4],4 meq/L
same,LDH,[4],106.6 IU/L
same,Na,[4],141.6 meq/L
same,PL,[4],153.8 mg/dL
same,RALB,[4],2.5 g/dL
same,TBIL,[4],0.04 mg/dL
same,TC,[4],80.2 mg/dL
same,TG,[4],89 mg/dL
same,TP,[4],5.6 g/dL
same,gamma-GTP,[4],1 IU/L
same,TERMINAL_BW,"100 mg/kg, 3 h, dose level Low",198.2 g
same,APTT,"100 mg/kg, 3 h, dose level Low",19.4 s
same,Bas,"100 mg/kg, 3 h, dose level Low",0%
same,Eos,"100 mg/kg, 3 h, dose level Low",1%
same,Fbg,"100 mg/kg, 3 h, dose level Low",282.4 mg/dL
same,Hb,"100 mg/kg, 3 h, dose level Low",13.1 g/dL
same,Ht,"100 mg/kg, 3 h, dose level Low",39.8%
same,Lym,"100 mg/kg, 3 h, dose level Low",79.6%
same,MCH,"100 mg/kg, 3 h, dose level Low",21.2 pg
same,MCHC,"100 mg/kg, 3 h, dose level Low",32.9%
same,MCV,"100 mg/kg, 3 h, dose level Low",64.4 fL
same,Mono,"100 mg/kg, 3 h, dose level Low",3%
same,Neu,"100 mg/kg, 3 h, dose level Low",16%
same,Plat,"100 mg/kg, 3 h, dose level Low",113.2 x10_4/uL
same,RBC,"100 mg/kg, 3 h, dose level Low",619.4 x10_4/ul
same,Ret,"100 mg/kg, 3 h, dose level Low",8.6%
same,WBC,"100 mg/kg, 3 h, dose level Low",80.4 x10_2/uL
same,KIDNEY_L,"100 mg/kg, 3 h, dose level Low",0.9 g
same,KIDNEY_R,"100 mg/kg, 3 h, dose level Low",0.9 g
same,KIDNEY_TOTAL,"100 mg/kg, 3 h, dose level Low",1.8 g
same,LIVER,"100 mg/kg, 3 h, dose level Low",8.6 g
same,ALP,"100 mg/kg, 3 h, dose level Low",1626.2 IU/L
same,ALT,"100 mg/kg, 3 h, dose level Low",39.4 IU/L
same,AST,"100 mg/kg, 3 h, dose level Low",69.2 IU/L
same,CRE,"100 mg/kg, 3 h, dose level Low",0.2 mg/dL
same,DBIL,"100 mg/kg, 3 h, dose level Low",0 mg/dL
same,GLC,"100 mg/kg, 3 h, dose level Low",182 mg/dL
same,IP,"100 mg/kg, 3 h, dose level Low",8.9 mg/dL
same,K,"100 mg/kg, 3 h, dose level Low",4.1 meq/L
same,LDH,"100 mg/kg, 3 h, dose level Low",82 IU/L
same,Na,"100 mg/kg, 3 h, dose level Low",143.8 meq/L
same,PL,"100 mg/kg, 3 h, dose level Low",159.6 mg/dL
same,RALB,"100 mg/kg, 3 h, dose level Low",2.5 g/dL
same,TBIL,"100 mg/kg, 3 h, dose level Low",0.046 mg/dL
same,TC,"100 mg/kg, 3 h, dose level Low",83.8 mg/dL
same,TG,"100 mg/kg, 3 h, dose level Low",57 mg/dL
same,TP,"100 mg/kg, 3 h, dose level Low",5.4 g/dL
same,gamma-GTP,"100 mg/kg, 3 h, dose level Low",1 IU/L
same,TERMINAL_BW,"100 mg/kg, 6 h, dose level Low",197.6 g
same,APTT,"100 mg/kg, 6 h, dose level Low",16.2 s
same,Bas,"100 mg/kg, 6 h, dose level Low",0%
same,Eos,"100 mg/kg, 6 h, dose level Low",1%
same,Fbg,"100 mg/kg, 6 h, dose level Low",282.2 mg/dL
same,Hb,"100 mg/kg, 6 h, dose level Low",13.1 g/dL
same,Ht,"100 mg/kg, 6 h, dose level Low",40.1%
same,Lym,"100 mg/kg, 6 h, dose level Low",75.8%
same,MCH,"100 mg/kg, 6 h, dose level Low",21.7 pg
same,MCHC,"100 mg/kg, 6 h, dose level Low",32.8%
same,MCV,"100 mg/kg, 6 h, dose level Low",66.4 fL
same,Mono,"100 mg/kg, 6 h, dose level Low",2.4%
same,Neu,"100 mg/kg, 6 h, dose level Low",20.2%
same,Plat,"100 mg/kg, 6 h, dose level Low",119.3 x10_4/uL
same,RBC,"100 mg/kg, 6 h, dose level Low",603.6 x10_4/ul
same,Ret,"100 mg/kg, 6 h, dose level Low",9.7%
same,WBC,"100 mg/kg, 6 h, dose level Low",94.4 x10_2/uL
same,KIDNEY_L,"100 mg/kg, 6 h, dose level Low",0.9 g
same,KIDNEY_R,"100 mg/kg, 6 h, dose level Low",0.9 g
same,KIDNEY_TOTAL,"100 mg/kg, 6 h, dose level Low",1.8 g
same,LIVER,"100 mg/kg, 6 h, dose level Low",8.1 g
same,ALP,"100 mg/kg, 6 h, dose level Low",1532.8 IU/L
same,ALT,"100 mg/kg, 6 h, dose level Low",37.4 IU/L
same,AST,"100 mg/kg, 6 h, dose level Low",71.4 IU/L
same,CRE,"100 mg/kg, 6 h, dose level Low",0.2 mg/dL
same,DBIL,"100 mg/kg, 6 h, dose level Low",0.004 mg/dL
same,GLC,"100 mg/kg, 6 h, dose level Low",175.2 mg/dL
same,IP,"100 mg/kg, 6 h, dose level Low",9.5 mg/dL
same,K,"100 mg/kg, 6 h, dose level Low",4 meq/L
same,LDH,"100 mg/kg, 6 h, dose level Low",71.6 IU/L
same,Na,"100 mg/kg, 6 h, dose level Low",144.6 meq/L
same,PL,"100 mg/kg, 6 h, dose level Low",140.6 mg/dL
same,RALB,"100 mg/kg, 6 h, dose level Low",2.5 g/dL
same,TBIL,"100 mg/kg, 6 h, dose level Low",0.054 mg/dL
same,TC,"100 mg/kg, 6 h, dose level Low",79.4 mg/dL
same,TG,"100 mg/kg, 6 h, dose level Low",27.2 mg/dL
same,TP,"100 mg/kg, 6 h, dose level Low",5.3 g/dL
same,gamma-GTP,"100 mg/kg, 6 h, dose level Low",1 IU/L

# Reference: ChEMBL document CHEMBL3885861, “Open TG-GATES”
